Assay results taken from US8853227B2, “Methotrexate adjuvants to reduce toxicity and methods for using the same” (Tosk, Incorporated, priority 2008, dated 2014).
Entries after “also recorded” stand apart in the source; their conditions may differ.

Columns and labels:
[1] = system: AS283 human lymphoma xenografts; assay: Mouse Study V (xenograft with AS283 implants); format: in vivo, C.B.-17 SCID mice
Method: Six-week-old male SCID mice were implanted with fragments of AS283 human lymphoma tumors. The tumors were allowed to reach 75-198 mg in weight (75-198 mm^3 in size) before the start of treatment. The experiment consisted of two treatment groups and one vehicle-treated control group, with ten animals per group, for a total of 30 mice on the first day of treatment.
TK-112690 was administered by ip injection [twice every 2 days for 5 injections with six hour interval (q6h×2, q2d×5)] at a dosage of 30 mg/kg/injection. MTX was administered by ip injection q2d×5 at a dosage of 5.0 mg/kg/injection three hours after the TK-112690 injection. The control group was treated with both vehicles, which were administered on the corresponding compound schedules.
Six-week-old male C.B.-17 SCID mice were acclimated in the laboratories for seven days prior to experimentation. Thirty-to-forty mg fragments of AS283 human lymphoma tumor were implanted sc in mice near the right flank using a 12-gauge trocar needle and allowed to grow. Tumors were allowed to reach 75-198 mg in weight (75-198 mm^3 in size) before the start of treatment. A sufficient number of mice were implanted so that tumors in a weight range as narrow as possible were selected for the trial on the day of treatment initiation (day 8 after tumor implantation). Those animals selected with tumors in the proper size range were assigned to the various treatment groups so that the median tumor weights on the first day of treatment were as close to each other as possible (162 mg for all groups). The experiment consisted of two treatment groups and one vehicle-treated control group with ten animals per group for a total of 30 mice on the first day of treatment.
A 15 mg/mL solution of TK-112690 was prepared daily by dissolving the compound in 100% DMSO (by vortexing as needed) and then adding PBS for a 3 mg/mL dosing solution. The final composition of the vehicle was 20% DMSO/80% PBS. The 25 mg/mL stock solution of MTX for injection was diluted each day of injection with saline to a 0.75 mg/mL dosing solution. Both compounds were administered ip by exact body weight using an injection volume of 0.1 mL for every 10 g of body weight.
TK-112690 was administered by intraperitoneal (ip) injection [twice every 2 days for 5 injections with six hour interval (q6h×2, q2d×5)] at a dosage of 30 mg/kg/injection. MTX was administered by intraperitoneal (ip) injection q2d×5 at a dosage of 5.0 mg/kg/injection three hours after the TK-112690 injection. The control group was treated with both vehicles, which were administered on the corresponding compound schedules.
The sc tumors were measured and the animals were weighed thrice weekly starting the day of the first treatment. Tumor volume was determined by caliper measurements (mm) and using the formula for an ellipsoid sphere: L×W^2/2=mm^3, where L and W refer to the larger and smaller perpendicular dimensions collected at each measurement. This formula is also used to calculate tumor weight, assuming unit density (1 mm^3=1 mg).
The study was terminated twenty one days after tumor implantation. Any animal found moribund or any animal whose tumor reached 4,000 mg, ulcerated or was sloughed off was euthanized prior to study termination.

[2] = system: AS283 cells; assay: Cell Culture Study II (MTX cytotoxicity, CellTiter-Glo); format: cell-based, human; settings: 72 hours
Method: In this study, AS283 cells were grown in RPMI-1640 supplemented with L-glutamine dipeptide, sodium pyruvate, HEPES, and 10% FBS. AS283 cells were used to seed three 96-well plates with 10,000 cells/well in a total volume of 50 μL. Medium alone wells were seeded 100 μL medium. Plates were incubated overnight. The following day, 25 μL of the TK-112690 and MTX stock solutions were added to the appropriate wells. TK-112690 was added first, followed by MTX in all wells. 25 μL of vehicle was added to TK-112690 alone wells. 25 μL of vehicle and 25 μL medium were added to vehicle control wells, and 50 μL medium was added to cell control wells. Cell viability was measured using CellTiter-Glo and DOX (10 μM) was used as a reference standard. The plates were incubated at 37° C., 5% CO2 for 72 hours then removed from the incubator and placed on the bench at room temperature for 30 min. The plates were not stacked or shaken. […] Luminescence was recorded on TriLux. […]
AS283 cells were grown in RPMI-1640 supplemented with L-glutamine dipeptide, sodium pyruvate, HEPES, and 10% FBS. […] Cell viability was measured using CellTiter-Glo and DOX (10 μM) was used as a reference standard.
The plates were incubated at 37° C., 5% CO2 for 72 hours then removed from the incubator and placed on the bench at room temperature for 30 min. […] Luminescence was recorded on TriLux.

[3] = MTX alone 5.0 mg/kg/injection ip q2d×5, day 21
[4] = TK-112690 30 mg/kg/injection combined with MTX 5.0 mg/kg/injection, day 21

CN(Cc1cnc2nc(N)nc(N)c2n1)c1ccc(C(=O)N[C@@H](CCC(=O)O)C(=O)O)cc1 [MTX, N-[4-[[(2,4-diamino-6-pteridinyl)methyl]methylamino]benzoyl]-L-glutamic acid, reference compound]
median tumor weight value, % of the control on day 21 ([1]; MTX alone 5.0 mg/kg/injection ip q2d×5): 2.8% | median tumor weight value smaller than the median at the start of treatment (162 mg) [1, 3]: 40.0 mg | median tumor weight value smaller than the median at the start of treatment (162 mg), % [1, 3]: 24.7% | cytotoxicity to AS283 cancer cells ([2]; MTX 0.01-100 μM): cytotoxic

Cc1cn2c(nc1=O)O[C@H]1[C@H](O)[C@@H](CO)O[C@H]12 [TK-112690, 2,2′-anhydro-5-methyluridine]
median tumor weight value smaller than the median at the start of treatment (162 mg) [1, 4]: 9.0 mg | median tumor weight value smaller than the median at the start of treatment (162 mg), % [1, 4]: 5.6% | median tumor weight value, % of the control on day 21 ([1]; TK-112690 30 mg/kg/injection ip (q6h×2, q2d×5) combined with MTX 5.0 mg/kg/injection): 3.5% | tumor volumes, MTX+TK-112690 versus MTX ([1]; day 21, p=1.0): no statistical difference | effect of TK-112690 on MTX cytotoxicity (cell viability) ([2]; TK-112690 1, 10, 100 μM + MTX 0.01-100 μM): did not diminish the cytotoxicity of MTX; also recorded: no statistical difference
